# Reference: ChEMBL document CHEMBL3797134, “Selectivity of 3-bromo-isoxazoline inhibitors between human and Plasmodium falciparum glyceraldehyde-3-phosphate dehydrogenases” (Bioorg Med Chem, 2016)
# Active and inactive are the calls of the source. The calls are words filed in the database; no cut-off is given here.
# Columns and labels:
# [1] = target: Glyceraldehyde-3-phosphate dehydrogenase (Plasmodium falciparum) (UniProt Q8T6B1); test: Slow phase inhibition of recombinant His-tagged Plasmodium falciparum GAPDH expressed in Escherichia coli using sodium arseniate as substrate assessed as ratio of Kinact to Ki by Kitz-Wilson double reciprocal plot analysis
# Glyceraldehyde-3-phosphate dehydrogenase (Plasmodium falciparum), sequence (Q8T6B1 as listed by the source): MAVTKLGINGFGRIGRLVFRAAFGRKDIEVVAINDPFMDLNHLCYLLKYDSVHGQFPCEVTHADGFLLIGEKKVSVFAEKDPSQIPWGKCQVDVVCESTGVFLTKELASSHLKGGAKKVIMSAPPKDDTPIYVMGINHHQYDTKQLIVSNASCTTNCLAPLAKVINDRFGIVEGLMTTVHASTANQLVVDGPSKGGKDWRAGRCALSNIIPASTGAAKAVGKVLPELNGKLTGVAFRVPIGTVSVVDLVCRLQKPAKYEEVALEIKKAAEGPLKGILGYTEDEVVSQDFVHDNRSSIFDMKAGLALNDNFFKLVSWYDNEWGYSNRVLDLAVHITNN
# [2] = target: Glyceraldehyde-3-phosphate dehydrogenase (Homo sapiens) (UniProt P04406); test: Fast phase inhibition of recombinant N-terminal His-tagged human GAPDH expressed in Escherichia coli BL21 codonPlus (DE3)-RIL cells using sodium arseniate as substrate assessed as ratio of Kinact to Ki by Kitz-Wilson double reciprocal plot analysis
# Glyceraldehyde-3-phosphate dehydrogenase (Homo sapiens), sequence (P04406 2-335 limits assumed): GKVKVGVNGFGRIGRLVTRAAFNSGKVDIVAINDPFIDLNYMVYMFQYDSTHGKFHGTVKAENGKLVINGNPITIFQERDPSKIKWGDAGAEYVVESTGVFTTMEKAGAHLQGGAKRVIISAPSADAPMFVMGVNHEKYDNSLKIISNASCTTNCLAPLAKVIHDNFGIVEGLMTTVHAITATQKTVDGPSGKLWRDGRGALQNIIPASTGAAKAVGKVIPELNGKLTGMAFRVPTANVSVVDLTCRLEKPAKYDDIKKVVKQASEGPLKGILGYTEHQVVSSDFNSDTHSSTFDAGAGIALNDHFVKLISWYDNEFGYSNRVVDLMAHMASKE
# [3] = target: Glyceraldehyde-3-phosphate dehydrogenase (Homo sapiens) (UniProt P04406); test: Binding affinity to recombinant N-terminal His-tagged human GAPDH expressed in Escherichia coli BL21 codonPlus (DE3)-RIL cells assessed as remaining cysteine pKa at 300 uM after 4 hrs (reference value: 6)
# [4] = target: Glyceraldehyde-3-phosphate dehydrogenase (Plasmodium falciparum) (UniProt Q8T6B1); test: Inhibition of recombinant His-tagged Plasmodium falciparum GAPDH expressed in Escherichia coli using sodium arseniate as substrate at 50 to 300 uM
# [5] = target: Glyceraldehyde-3-phosphate dehydrogenase (Homo sapiens) (UniProt P04406); test: Effect on dimer to tetramer equilibrium of recombinant N-terminal His-tagged human GAPDH expressed in Escherichia coli BL21 codonPlus (DE3)-RIL cells at 50 uM after 4 hrs by gel filtration method
# [6] = target: Glyceraldehyde-3-phosphate dehydrogenase (Plasmodium falciparum) (UniProt Q8T6B1); test: Fast phase inhibition of recombinant His-tagged Plasmodium falciparum GAPDH expressed in Escherichia coli using sodium arseniate as substrate assessed as ratio of Kinact to Ki by Kitz-Wilson double reciprocal plot analysis
# [7] = target: Glyceraldehyde-3-phosphate dehydrogenase (Homo sapiens) (UniProt P04406); test: Binding affinity to recombinant N-terminal His-tagged human GAPDH expressed in Escherichia coli BL21 codonPlus (DE3)-RIL cells assessed as decrease in reactive cysteine content at 50 uM after 4 hrs relative to control; design: scale not given: the % may be the effect or the level left
# [8] = target: Glyceraldehyde-3-phosphate dehydrogenase (Homo sapiens) (UniProt P04406); test: Inhibition of recombinant N-terminal His-tagged human GAPDH expressed in Escherichia coli BL21 codonPlus (DE3)-RIL cells using sodium arseniate as substrate at 10 to 300 uM
# COc1ccc(C2CC(Br)=NO2)cc1 [9] = test: Binding affinity to recombinant N-terminal His-tagged human GAPDH expressed in Escherichia coli BL21 codonPlus (DE3)-RIL cells assessed as enzyme Km at 50 uM after 4 hrs by Michaelis-Menten plot analysis (reference value: 340+/- 5 uM)
# COc1ccc(C2CC(Br)=NO2)cc1 [10] = test: Binding affinity to recombinant N-terminal His-tagged human GAPDH expressed in Escherichia coli BL21 codonPlus (DE3)-RIL cells assessed as enzyme Vmax at 50 uM after 4 hrs by Michaelis-Menten plot analysis (reference value: 0.069 +/- 0.003 mM/min)
# Glyceraldehyde-3-phosphate dehydrogenase (Homo sapiens), P04406, sequence (P04406 whole entry): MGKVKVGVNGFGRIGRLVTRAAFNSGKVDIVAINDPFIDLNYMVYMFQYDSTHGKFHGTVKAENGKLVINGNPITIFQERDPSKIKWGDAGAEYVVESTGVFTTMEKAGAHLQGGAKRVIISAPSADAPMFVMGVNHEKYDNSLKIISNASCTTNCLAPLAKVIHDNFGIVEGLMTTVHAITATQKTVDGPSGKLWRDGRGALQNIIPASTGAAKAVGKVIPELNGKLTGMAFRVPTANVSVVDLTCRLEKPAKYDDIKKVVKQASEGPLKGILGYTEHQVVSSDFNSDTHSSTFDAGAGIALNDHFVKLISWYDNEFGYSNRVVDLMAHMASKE
Molecule,Ratio [1] [s⁻¹ M⁻¹],Ratio [2] [s⁻¹ M⁻¹],pKa [3],inhibition [4] [%],Activity [5],Ratio [6] [s⁻¹ M⁻¹],Activity [7] [%],inhibition [8],Km (COc1ccc(C2CC(Br)=NO2)cc1 [9]) [µM],Vmax (COc1ccc(C2CC(Br)=NO2)cc1 [10]) [mM/min]
COc1ccc(C2CC(Br)=NO2)cc1 (stereo unspecified),0.34,142,6.3,25,inactive,59.9,7.8,Active,–,–
"Glyceraldehyde-3-phosphate dehydrogenase (Homo sapiens), P04406",–,–,–,–,–,–,–,–,299,0.051
COC(=O)[C@@H](N)[C@@H]1CC(Br)=NO1,10.7,–,–,–,–,–,–,–,–,–
